Assay results as given in patent publication US7576125B2, “Melanogenesis inhibitor and skin preparation containing the same” (Takasago International Corporation, priority 2003, dated 2009).

How the values were obtained:
Format in all cases: cell-based
[1] = system: B16 melanoma cells; assay: Melanogenesis inhibition test (visual evaluation) using B16 melanoma cells; details: 3 days culture
Experimental: The following tests a) and b) were conducted on the compounds shown in Synthesis Examples and Comparative Synthesis Examples to examine their melanogenesis-inhibiting effects. • a) Cytotoxicity test (using B16 melonoma cells) • b) Melanogenesis inhibition test (visual evaluation) (using B16 melonoma cells) Evaluation Methods
8×10^4 B16 melanoma cells were inoculated in a plastic-made culture flask (25 cm^2). The cells were cultured in a 10% serum-containing DMEN medium (produced by Nissui Pharmaceutical co., Ltd., trade name) in the presence of 5% carbon dioxide at 37° C. 3 days later, a test sample diluted with ethanol was added thereto, and culture was conducted for 3 days. After the completion of the culture, the medium was removed and the flask contents were washed with a phosphate buffer solution (hereinafter referred t as PBS). The cells were peeled from the flask inner wall using a medium containing trypsin and EDTA (ethylenediaminetetraacetic acid). The resulting cells suspension was centrifuged to recover cells. Part of the cells was taken and the number of cells was measured using a Coulter counter. […] A melanogenesis inhibition test was carried out in this concentration range. The cells obtained were washed once with PBS and then the whiteness of the precipitate was rated visually based on the following evaluation standard.
Evaluation Standard • −: Same as the solvent control (black) • +−: Slightly different from the solvent control (black-gray) • +: Clearly different from the solvent control (gray) • ++: Coloring of cells is very low (gray-white) • +++: No coloring of cells (white)

[2] = system: B16 melanoma cells; assay: Cell propagation rate / cytotoxicity by MTT method on parallel plate
[3] = system: tyrosinase biosynthesis in B16 melanoma cells; assay: Tyrosinase biosynthesis hindrance test (intra-cell tyrosinase activity); details: 2 days
Experimental: A tyrosinase activity hindrance test and a tyrosinase biosynthesis hindrance test were conducted according to the following test methods to examine the mechanism for hindrance of melanin denovo synthesis. […] In this method, tyrosinase biosynthesis hindrance is indicated indirectly by measuring intra-cell tyrosinase activity. 100 μl of a suspension containing 3×10^5/ml of B16 melanoma cells was inoculated into a 96-well plate, and culture was made at 37° C. overnight in 5% CO2. Next day, the medium was changed with 200 μl of a sample-containing culture medium, and culture was made for 2 days under the same conditions. Thereafter, the supernatant liquid was removed and the residue was washed with 200 μl of a phosphate buffer solution twice. Then, 100 μl of 1% Triton X100 was added and the mixture was allowed to stand at room temperature for 1 hour, followed by gentle shaking. Next, 100 μl of 1% DOPA was added. Measurement was made in the same manner as in the above test method for tyrosinase activity hindrance.

| Structure (SMILES) | whiteness of the cell precipitate rated visually (melanogenesis inhibition) ([1]; Concentration 12.5 μg/ml) | other results |
| --- | --- | --- |
| CCCOCc1ccc2c(c1)OCO2 [Synthesis Example 5, Piperonyl n-propyl ether] | + |  |
| O=c1cc(CO)occ1O [kojic acid] |  | Cell propagation rate % ([2]; 50 ppm): 100.8%; Cell propagation rate % ([2]; 100 ppm): 97.3%; Cell propagation rate % ([2]; 200 ppm): 96.2%; Tyrosinase biosynthesis hindrance, Hindrance % ([3]; 50 ppm): 21.0%; Tyrosinase biosynthesis hindrance, Hindrance % ([3]; 100 ppm): 21.0%; Tyrosinase biosynthesis hindrance, Hindrance % ([3]; 200 ppm): 21.0% |
| CC(C)CCOCc1ccc2c(c1)OCO2 [Synthesis Example 7, Piperonyl isoamyl ether] | ++ |  |
| CCCCOCc1ccc2c(c1)OCO2 [Synthesis Example 2, piperonyl n-butyl ether] | ++ |  |
| CC(C)COCc1ccc2c(c1)OCO2 [Synthesis Example 6, Piperonyl isobutyl ether] | ++ |  |
| CCCCCCCCOCc1ccc2c(c1)OCO2 [Synthesis Example 9, Piperonyl n-octyl ether] | + | whiteness of the cell precipitate rated visually (melanogenesis inhibition) ([1]; Concentration 6.3 μg/ml): + |
| COCc1ccc2c(c1)OCO2 [Synthesis Example 3, Piperonyl methyl ether] | − |  |
| CCCCCCOCc1ccc2c(c1)OCO2 [Synthesis Example 8, Piperonyl n-hexyl ether] | ++ |  |
| CCOCc1ccc2c(c1)OCO2 [Synthesis Example 4, Piperonyl ethyl ether] | − |  |
